Measurements published in publication PMC5750218, “Protein-inspired antibiotics active against vancomycin- and daptomycin-resistant bacteria” (Nature Communications, 2018).
Converted amounts (≈) assume the structure as drawn. Positions of bridges follow the written chain, without caps; N, C: chain ends. Residues, ends and D or L forms follow the SMILES beside them. Chains are numbered I, II in the order given. *: point of attachment. Myristoyl = CCCCCCCCCCCCCC(=O)*

Key:
Experiment in all cases: microbe, parasite or virus in culture
[1] = tested on: Vancomycin-resistant (VanA) Enterococcus faecium ATCC 51559; details: ATCC 51559
Protocol: (§1) Antimicrobial activity of compounds was tested against a number of bacterial strains by broth microdilution (BMD) assay with MIC determination, including S. aureus (MSSA ATCC® 29213™, MRSA ATCC® 43300™, VISA NARSA NRS1, VISA NARSA NRS4), Streptococcus pneumoniae (MDR ATCC® 700677™) and Enterococcus faecium (MDR VanA ATCC® 51559™). ATCC strains were sourced from the American Type Culture Collection and NRS strains from NARSA (Network on Antimicrobial Resistance in S. aureus) via BEI Resources (www.beiresources.org). All compounds were prepared to 160 µg mL^−1 solution in water from a stock solution of 1 mM concentration.
(§2) The compounds, along with standard antibiotics were serially diluted twofold across the wells of 96-well non-binding surface (NBS) polystyrene plates (Corning 3641). […] Standards ranged from 64 to 0.03 µg mL^−1 and compounds from 8 to 0.003 µg mL^−1 with final assay volumes of 100 µL per well. Gram-positive bacteria were cultured in Mueller Hinton broth (MHB) (Bactolaboratories, Cat. no. 211443) at 37 °C overnight. A sample of each culture was then diluted 40-fold in fresh MHB and incubated at 37 °C for 2–3 h. […] All the plates were covered and incubated at 37 °C for 24 h. MICs were the lowest concentration showing no visible growth.

[2] = tested on: Multi-drug-resistant S. pneumoniae ATCC 700677; details: ATCC 700677
Protocol: as §1, §2

[3] = tested on: Vancomycin-intermediate S. aureus NRS1; details: Vancomycin-intermediate NRS1
Protocol: as §1, §2

[4] = tested on: Methicillin-resistant S. aureus ATCC 43300; details: ATCC 43300, 24 h
Protocol: as §1
as §2, with “The compounds, along with standard antibiotics were serially diluted twofold across the wells of 96-well non-binding surface (NBS) polystyrene plates (Corning 3641).” left out

Structure (SMILES)	MIC VRE [1] [µg/mL]	MIC MRSA [4] [µg/mL]	MIC MDR S.P. [2] [µg/mL]	MIC VISA [3] [µg/mL]
CNC(=O)[C@H](CCCCNC(=O)[C@H]1NC(=O)[C@H]2NC(=O)[C@H](NC(=O)[C@@H]3NC(=O)[C@H](CC(N)=O)NC(=O)[C@H](NC(=O)[C@@H](CC(C)C)NC)[C@H](O)c4ccc(c(Cl)c4)Oc4cc3cc(c4O[C@@H]3O[C@H](CO)[C@@H](O)[C@H](O)[C@H]3O[C@H]3C[C@](C)(N)[C@H](O)[C@H](C)O3)Oc3ccc(cc3Cl)[C@H]2O)c2ccc(O)c(c2)-c2c(O)cc(O)cc21)NC(=O)[C@H](CCCCN)NC(=O)[C@@H](CCCCN)NC(=O)[C@H](CCCCNC(=O)c1ccc(Oc2ccccc2)cc1)NC(=O)c1ccc(Oc2ccccc2)cc1 [Compound 26]	1.5 (≈ 0.634 µM)	<0.003	<0.003	0.19 (≈ 0.0803 µM)
CCCCCCCCCCCCCC(=O)NCC(=O)N[C@@H](CO)C(=O)N[C@@H](CCCCN)C(=O)N[C@@H](CCCCN)C(=O)N[C@@H](CCCCN)C(=O)N[C@@H](CS)C(N)=O [Compound 13a, Myristoyl-GSKKKC-NH 2] (Myristoyl-GSKKKC-NH2)	>8	>8		
CCCCCCCCCCCCC(=O)N[C@@H](CCCCN)C(=O)N[C@@H](CCCCN)C(=O)N[C@@H](CCCCN)C(=O)N[C@@H](CCCCNC(=O)[C@H]1NC(=O)[C@H]2NC(=O)[C@H](NC(=O)[C@@H]3NC(=O)[C@H](CC(N)=O)NC(=O)[C@H](NC(=O)[C@@H](CC(C)C)NC)[C@H](O)c4ccc(c(Cl)c4)Oc4cc3cc(c4O[C@@H]3O[C@H](CO)[C@@H](O)[C@H](O)[C@H]3O[C@H]3C[C@](C)(N)[C@H](O)[C@H](C)O3)Oc3ccc(cc3Cl)[C@H]2O)c2ccc(O)c(c2)-c2c(O)cc(O)cc21)C(=O)O [Compound 38, nC12CO-KKK-K-(Vancomycin)-OH]	0.1875 (≈ 0.0869 µM)	<0.003	<0.003	0.03 (≈ 0.0139 µM)
CCCCCCCCCCCCCC(=O)NCC(=O)N[C@@H](CO)C(=O)N[C@@H](CCCCN)C(=O)N[C@@H](CCCCN)C(=O)N[C@@H](CCCCN)C(=O)N[C@@H](CS)C(=O)O [Compound 14a, Myristoyl-GSKKKC-OH] (Myristoyl-GSKKKC-OH)	>8	>8		

Now from value to compound, other results behind:

MIC VRE [1] [µg/mL]	MIC MRSA [4] [µg/mL]	Structure (SMILES)	MIC MDR S.P. [2] [µg/mL]	MIC VISA [3] [µg/mL]
>8	>8	CCCCCCCCCCCCCC(=O)NCC(=O)N[C@@H](CO)C(=O)N[C@@H](CO)C(=O)N[C@@H](CCCCN)C(=O)N[C@@H](CO)C(=O)N1CCC[C@H]1C(=O)N[C@@H](CO)C(=O)N[C@@H](CCCCN)C(=O)N[C@@H](CCCCN)C(=O)N[C@@H](CCCCN)C(=O)N1CCC[C@H]1C(=O)N[C@@H](CS)C(N)=O [Compound 12a] (Myristoyl-GSSKSPSKKKPC-NH2)		
>8	>8	CCCCCCCCCCCCCC(=O)N[C@@H](CCCCN)C(=O)N[C@@H](CCCCN)C(=O)N[C@@H](CCCCN)C(=O)N[C@@H](CSSC[C@H](NC(=O)[C@H](CCCCN)NC(=O)[C@H](CCCCN)NC(=O)[C@H](CCCCN)NC(=O)CCCCCCCCCCCCC)C(=O)O)C(=O)O [Compound 15a, Myristoyl-KKKC-OH – disulphide dimer] (I: Myristoyl-KKKC-OH / II: Myristoyl-KKKC-OH; disulfide I:4-II:4)		
>8	>8	CCCCCCCCCCCCCC(=O)NCC(=O)N[C@@H](CO)C(=O)N[C@@H](CO)C(=O)N[C@@H](CCCCN)C(=O)N[C@@H](CO)C(=O)N1CCC[C@H]1C(=O)N[C@@H](CO)C(=O)N[C@@H](CCCCN)C(=O)N[C@@H](CCCCN)C(=O)N[C@@H](CCCCN)C(=O)N[C@@H](CCCCN)C(=O)N[C@@H](CCCCN)C(=O)N[C@@H](CCCCN)C(=O)N1CCC[C@H]1C(=O)NCC(=O)N[C@@H](CC(=O)O)C(=O)N[C@@H](CS)C(N)=O [Compound 8a] (Myristoyl-GSSKSPSKKKKKKPGDC-NH2)		
